Patent US9770025B2, “Fungicidal compositions” (Syngenta Participations AG, priority 2013, dated 2017)
Values joined by “and” are separate entries in the source; they are usually repeats but may differ in a detail not shown here. Identical values can stand only once. Like-named read-outs stand apart in the source and are kept apart here.

Legend:
Format in all cases: cell-based
[1] = test system: Monographella nivalis (Microdochium nivale); test: Monographella nivalis (Microdochium nivale) liquid culture growth inhibition
Experimental: (§1) Liquid Culture Tests in Well Plates
(§2) Mycelia fragments or conidia suspensions of a fungus, prepared either freshly from liquid cultures of the fungus or from cryogenic storage, were directly mixed into nutrient broth. DMSO solutions of the test compound (max. 10 mg/ml) was diluted with 0.025% Tween20 by factor 50 and 10 μl of this solution was pipetted into a microtiter plate (96-well format). The nutrient broth containing the fungal spores/mycelia fragments was then added to give an end concentration of the tested compound. The test plates were incubated in the dark at 24° C. and 96% rh. The inhibition of fungal growth was determined photometrically and visually after 2-4 days, depending on the pathosystem, and percent antifungal activity relative to the untreated check was calculated.
Monographella nivalis (Microdochium nivale)/Liquid Culture:
(§3) Conidia of the fungus from cryogenic storage were directly mixed into nutrient broth (PDB potato dextrose broth). After placing a (DMSO) solution of test compound into a microtiter plate (96-well format), the nutrient broth containing the fungal spores was added.

[2] = test system: Gaeumannomyces graminis; test: Gaeumannomyces graminis liquid culture growth inhibition; conditions: Gaeumannomyces graminis, read-out: Compound 1.001 inhibition (%), in PDB
Experimental: as §1, §2
Gaeumannomyces graminis/Liquid Culture:
Mycelial fragments of the fungus from cryogenic storage were directly mixed into nutrient broth (PDB potato dextrose broth). After placing a (DMSO) solution of test compound into a microtiter plate (96-well format), the nutrient broth containing the fungal spores was added.

[3] = test system: Fusarium culmorum; test: Fusarium culmorum liquid culture growth inhibition; conditions: for inhibition at 0.025 ppm: read-out: Compound 1.001 inhibition (%), 0.0250 ppm; for inhibition at 0.05 ppm: read-out: Compound 1.001 inhibition (%), 0.0500 ppm
Experimental: as §1, §2
Fusarium culmorum/Liquid Culture:
as §3

[4] = test system: Mycosphaerella graminicola (Septoria tritici); test: Mycosphaerella graminicola (Septoria tritici) liquid culture growth inhibition; conditions: for inhibition at 0.0008 ppm / inhibition at 0.0016 ppm / inhibition at 0.0031 ppm: Zymoseptoria tritici; for inhibition at 0.0008 ppm: read-out: Compound 1.001 inhibition (%), 0.0008 ppm; for inhibition at 0.0016 ppm: read-out: Compound 1.001 inhibition (%), 0.0016 ppm; for inhibition at 0.0031 ppm: read-out: Compound 1.001 inhibition (%), 0.0031 ppm
Experimental: as §1, §2
Mycosphaerella graminicola (Septoria tritici)/Liquid Culture:
as §3

[5] = test system: Alternaria solani; test: Alternaria solani liquid culture growth inhibition; conditions: for inhibition at 0.0008 ppm: read-out: Compound 1.001 inhibition (%), 0.0008 ppm; for inhibition at 0.0016 ppm: read-out: Compound 1.001 inhibition (%), 0.0016 ppm; for inhibition at 0.0031 ppm: read-out: Compound 1.001 inhibition (%), 0.0031 ppm
Experimental: as §1
as §2, with “The nutrient broth containing the fungal spores/mycelia fragments was then added to give an end concentration of the tested compound.” left out
Alternaria solanil/Liquid Culture:
as §3

[6] = test system: Pythium ultimum; test: Pythium ultimum (seedling damping off) liquid culture growth inhibition; conditions: Globisporangium ultimum, read-out: Compound 1.001 inhibition (%), PDB
Experimental: as §1, §2
Pythium ultimum Seedling Damping Off)/Liquid Culture:
Mycelia fragments and oospores of a newly grown liquid culture of the fungus were directly mixed into nutrient broth (PDB potato dextrose broth). After placing a (DMSO) solution of the test compounds into a microtiter plate (96-well format), the nutrient broth containing the fungal mycelia/spore mixture was added.

[7] = test system: Botryotinia fuckeliana (Botrytis cinerea); test: Botryotinia fuckeliana (Botrytis cinerea) liquid culture growth inhibition; conditions: for inhibition at 0.0016 ppm: read-out: Compound 1.001 inhibition (%), 0.0016 ppm; for inhibition at 0.0125 ppm: read-out: Compound 1.001 inhibition (%), 0.0125 ppm
Experimental: as §1, §2
Botryotinia fuckeliana (Botrytis cinerea)/Liquid Culture:
Conidia of the fungus from cryogenic storage were directly mixed into nutrient broth (Vogels broth). After placing a (DMSO) solution of test compound into a microtiter plate (96-well format), the nutrient broth containing the fungal spores was added.

[8] = Fusarium culmorum, PDB, Table 4
[9] = Alternaria solani, PDB, Table 7
[10] = Alternaria solani, PDB, Table 9
[11] = Alternaria solani, PDB, Table 11
[12] = Alternaria solani, PDB, Table 13
[13] = Botrytis cinerea, Vogels Broth, Table 6
[14] = Botrytis cinerea, in Vogels Broth

CON(C(=O)c1cn(C)nc1C(F)F)C(C)Cc1c(Cl)cc(Cl)cc1Cl (stereo not drawn) [Compound 1.001, 3-(difluoromethyl)-N-methoxy-1-methyl-N-[1-methyl-2-(2,4,6-trichlorophenyl)ethyl]pyrazole-4-carboxamide]
Compound 1.001 inhibition (%) ([1]; 0.0008 ppm, in PDB): 3% | Compound 1.001 inhibition (%) ([1]; 0.0250 ppm, in PDB): 5% | Compound 1.001 inhibition (%) ([1]; 0.0500 ppm, in PDB): 48% | inhibition at 0.0004 ppm ([1]; Monographella nivalis, read-out: Compound 1.001 inhibition (%), 0.0004 ppm, PDB, Table 5): 0% | inhibition at 0.0008 ppm ([1]; Monographella nivalis, read-out: Compound 1.001 inhibition (%), 0.0008 ppm, PDB, Table 5): 0% | inhibition at 0.0008 ppm ([1]; Monographella nivalis, read-out: Compound 1.001 inhibition (%), 0.0008 ppm, in PDB): 2% | inhibition at 0.0016 ppm ([1]; Monographella nivalis, read-out: Compound 1.001 inhibition (%), 0.0016 ppm, PDB, Table 5): 0% | inhibition at 0.0016 ppm ([1]; Monographella nivalis, read-out: Compound 1.001 inhibition (%), 0.0016 ppm, in PDB): 0% | inhibition at 0.0031 ppm ([1]; Monographella nivalis, read-out: Compound 1.001 inhibition (%), 0.0031 ppm, PDB, Table 5): 0% | inhibition at 0.0125 ppm ([1]; Monographella nivalis, read-out: Compound 1.001 inhibition (%), 0.0125 ppm, in PDB): 0% | inhibition at 0.05 ppm ([1]; Monographella nivalis, read-out: Compound 1.001 inhibition (%), 0.0500 ppm, in PDB): 51% | inhibition at 0.0004 ppm ([1]; Monographella nivalis, read-out: Compound 1.001 inhibition (%), compound 1.001 alone at 0.0004 ppm, in PDB): 4% | inhibition at 0.0008 ppm ([1]; Monographella nivalis, read-out: Compound 1.001 inhibition (%), compound 1.001 alone at 0.0008 ppm, in PDB): 1% | inhibition at 0.0016 ppm ([1]; Monographella nivalis, read-out: Compound 1.001 inhibition (%), compound 1.001 alone at 0.0016 ppm, in PDB): 0% | inhibition at 0.0063 ppm ([1]; Monographella nivalis, read-out: Compound 1.001 inhibition (%), compound 1.001 alone at 0.0063 ppm, in PDB (Table 38)): 0% | inhibition at 0.0125 ppm ([1]; Monographella nivalis, read-out: Compound 1.001 inhibition (%), compound 1.001 alone at 0.0125 ppm, in PDB): 0% | inhibition at 0.0125 ppm ([1]; Monographella nivalis, read-out: Compound 1.001 inhibition (%), compound 1.001 alone at 0.0125 ppm, in PDB (Table 38)): 0% | inhibition at 0.025 ppm ([2]; 0.0250 ppm): 0% | inhibition at 0.05 ppm ([2]; 0.0500 ppm): 0% | inhibition at 0.2 ppm ([2]; 0.2000 ppm): 0% | Compound 1.001 inhibition (%) ([3]; 0.0250 ppm, in PDB): 27% and 34% and 29% | Compound 1.001 inhibition (%) ([3]; 0.0500 ppm, in PDB): 54% and 53% | Compound 1.001 inhibition (%) ([3]; 0.1000 ppm, in PDB): 57% | Compound 1.001 inhibition (%) ([3]; 0.2000 ppm, in PDB): 59% and 57% | inhibition at 0.0016 ppm ([3]; Fusarium culmorum, read-out: Compound 1.001 inhibition (%), 0.0016 ppm, PDB, Table 4): 7% | inhibition at 0.0031 ppm ([3]; Fusarium culmorum, read-out: Compound 1.001 inhibition (%), 0.0031 ppm, PDB, Table 4): 19% | inhibition at 0.0063 ppm ([3]; Fusarium culmorum, read-out: Compound 1.001 inhibition (%), 0.0063 ppm, PDB, Table 4): 14% | inhibition at 0.0125 ppm ([3]; Fusarium culmorum, read-out: Compound 1.001 inhibition (%), 0.0125 ppm, PDB, Table 4): 20% | inhibition at 0.025 ppm [3, 8]: 38% | inhibition at 0.025 ppm ([3]; Fusarium culmorum, in PDB): 24% | inhibition at 0.05 ppm [3, 8]: 46% | inhibition at 0.05 ppm ([3]; Fusarium culmorum, in PDB): 49% | inhibition at 0.1 ppm ([3]; Fusarium culmorum, read-out: Compound 1.001 inhibition (%), 0.1000 ppm, in PDB): 51% | inhibition at 0.2 ppm ([3]; Fusarium culmorum, read-out: Compound 1.001 inhibition (%), 0.2000 ppm, in PDB): 55% | Compound 1.001 inhibition (%) ([4]; 0.0016 ppm, in PDB): 33% | Compound 1.001 inhibition (%) ([4]; 0.0031 ppm, in PDB): 82% | inhibition at 0.0008 ppm ([4]; PDB, Table 8): 15% | inhibition at 0.0008 ppm ([4]; in PDB): 19% | inhibition at 0.0016 ppm ([4]; PDB, Table 8): 34% | inhibition at 0.0016 ppm ([4]; PDB, Table 12): 54% | inhibition at 0.0016 ppm ([4]; PDB, Table 14): 47% | inhibition at 0.0031 ppm ([4]; PDB, Table 8): 81% | inhibition at 0.0031 ppm ([4]; in PDB): 83% | Compound 1.001 inhibition (%) ([5]; 0.0016 ppm, in PDB): 74% | inhibition at 0.0004 ppm ([5]; Alternaria solani, read-out: Compound 1.001 inhibition (%), 0.0004 ppm, in PDB): 21% | inhibition at 0.0008 ppm [5, 9]: 36% | inhibition at 0.0008 ppm [5, 10]: 37% | inhibition at 0.0008 ppm [5, 11]: 42% | inhibition at 0.0008 ppm [5, 12]: 51% | inhibition at 0.0016 ppm [5, 9]: 57% | inhibition at 0.0016 ppm [5, 10]: 64% | inhibition at 0.0016 ppm [5, 11]: 68% | inhibition at 0.0016 ppm [5, 12]: 69% | inhibition at 0.0016 ppm ([5]; Alternaria solani, in PDB): 65% | inhibition at 0.0031 ppm [5, 9]: 81% | inhibition at 0.0031 ppm [5, 12]: 82% | inhibition at 0.0016 ppm ([6]; 0.0016 ppm, Table 10): 0% | inhibition at 0.0031 ppm ([6]; 0.0031 ppm, Table 10): 0% | inhibition at 0.0063 ppm ([6]; 0.0063 ppm, Table 3): 11% | inhibition at 0.0125 ppm ([6]; 0.0125 ppm, Table 3): 0% | inhibition at 0.025 ppm ([6]; 0.0250 ppm, Table 3): 0% | inhibition at 0.05 ppm ([6]; 0.0500 ppm, Table 3): 0% | inhibition at 0.1 ppm ([6]; 0.1000 ppm, Table 3): 2% | inhibition at 0.2 ppm ([6]; 0.2000 ppm, Table 3): 0% | Compound 1.001 inhibition (%) ([7]; 0.0016 ppm, in Vogels Broth): 33% and 29% | Compound 1.001 inhibition (%) ([7]; 0.0031 ppm, in Vogels Broth): 54% | Compound 1.001 inhibition (%) ([7]; 0.0063 ppm, in Vogels Broth): 62% and 38% | inhibition at 0.0004 ppm ([7]; Botrytis cinerea, read-out: Compound 1.001 inhibition (%), 0.0004 ppm, in Vogels Broth): 8% | inhibition at 0.0008 ppm ([7]; Botrytis cinerea, read-out: Compound 1.001 inhibition (%), 0.0008 ppm, in Vogels Broth): 21% | inhibition at 0.0016 ppm [7, 13]: 16% | inhibition at 0.0016 ppm [7, 14]: 26% | inhibition at 0.0031 ppm ([7]; Botrytis cinerea, read-out: Compound 1.001 inhibition (%), 0.0031 ppm, Vogels Broth, Table 6): 49% | inhibition at 0.0031 ppm ([7]; Botrytis cinerea, read-out: Compound 1.001 inhibition (%), 0.0031 ppm, in Vogels Broth): 44% | inhibition at 0.0063 ppm ([7]; Botrytis cinerea, read-out: Compound 1.001 inhibition (%), 0.0063 ppm, Vogels Broth, Table 6): 61% | inhibition at 0.0125 ppm [7, 13]: 79% | inhibition at 0.0125 ppm [7, 14]: 79% | inhibition at 0.0031 ppm ([7]; Botrytis cinerea, read-out: Compound 1.001 inhibition (%), compound 1.001 alone at 0.0031 ppm, in Vogels Broth): 40% | inhibition at 0.0063 ppm ([7]; Botrytis cinerea, read-out: Compound 1.001 inhibition (%), compound 1.001 alone at 0.0063 ppm, in Vogels Broth): 60%
